Laboratory results taken from patent US5008386A, “Methylated cyclodextrin type compounds and process for preparing same” (Chinoin Gyogyszer es Vegyeszeti Termekek Gyara R.T., priority 1987, dated 1991).
Values after ≈ are worked out from the molar mass of the structure shown. Values joined by “and” are separate entries in the source; they are usually repeats but may differ in a detail not shown here. Equal values may be shown once. Read-outs that look alike come from different tables or passages of the source.

Columns and labels:
[1] = Solubility-increasing effect (UV spectrophotometry, 22 °C, 18 hours stirring)
Protocol: Therefore comparative examinations concerning the solubility-increasing effect were performed with model guest-molecules containing a basic group. (The measurements were carried out by UV spectrophotometry at 22° C. after stirring for 18 hours).

[2] = in vitro; assay type: cell-based, human; settings: human, erythrocytes, pH 7.4
Protocol: (§1) Solutions containing the test substances in 10 mM concentration were prepared in a 10 mM phosphate buffer at pH 7.4. The commercially available α-, β- and γ-CD products manufactured by Chinoin Chemical and Pharmaceutical Works Ltd. (Budapest, Hungary) were used.
(§2) DIMEB and TRIMEB, i.e. heptakis(2,6-di-O-methyl)-β-CD and heptakis(2,3,6-tri-O-methyl)-β-CD, respectively were prepared by the partial or total methylation of β-CD as described previously.
(§3) Fresh human blood (taken from healthy donors being under no medicinal treatment) treated by citrate as anticoagulant was centrifuged at 2000-3000× g for 10 minutes, then the supernatant was decanted, the eryhtrocytes were suspended in 5 ml of 10 mM isotonic phosphate buffer each and again centrifuged at 2000-3000× g for 10 minutes. After repeating twice this operation, the resulting erythrocytes were suspended in isotonic phosphate buffer to obtain a haematocrite volume of about 10%. This suspension (which could be stored in a refrigerator at about 4° C. for at most 48 hours) was used in further experiments.
(§4) 0.4 ml of erythrocyte suspension was added to a test solution of 4 ml total volume containing the tested CD-s and derivatives in various concentrations, then the mixture was incubated at 37° C. for 30 minutes. The mixture of 4 ml isotonic phosphate buffer and 0.4 ml erythrocyte suspension was used as blank trial (which was treated similarly to the samples).
(§5) After 30 minutes, the suspensions being present in the centrifuge tubes were centrifuged at 250-500× g for 10 minutes. (It was observed that no transparent supernatant, useful for spectrophotometric determination was obtained when the centrifuging was carried out for a shorter time.) After 10 minutes, the supernatants were drained off and their extinction was photometrically determined at 543 nm against a blank solution. In order to give the percentage of haemolysis, the extinction measured after a complete haemolysis had to be determined. This value was obtained in such a way that 0.4 ml of erythrocyte suspension was added to 4 ml of distilled water, then incubation and centrifuging were carried out in the same manner as described for the samples. The extinction of the solution thus obtained gave the 100% value of the haemolysis; when relating the measured extinctions of the samples to the 100% value, the extent of the haemolysis was obtained as a relative percentage.

[3] = system: human erythrocytes; assay: in vitro; assay type: cell-based
Protocol: as §1, §2, §3, §4, §5

[4] = system: human erythrocytes; settings: cited from earlier work
[5] = 2.5% SUMEB vs 2.5% DIMEB solution, * UV maximum shifted (Sensit base)
[6] = human, erythrocytes, 0.5 h, pH 7.4
[7] = 37° C., pH 7,4, 10 mmoles isotonic phosphate buffer

## CC(Cc1ccccc1)NCCC(c1ccccc1)c1ccccc1 (racemic) [± Prenylamine base, Prenylamine]
[1]; [5]
  SUMEB / DIMEB (ratio of solubilities): 3.75
[1]; 2.5% dimeb solution
  solubility at 18 h: 2000 µg/mL (≈ 6.07 mM)
[1]; 2.5% sumeb solution
  solubility at 18 h: 7500 µg/mL (≈ 22.8 mM)
[1]; water
  solubility at 18 h: 310 µg/mL (≈ 0.941 mM)

## CC(NCCC(c1ccccc1)c1ccccc1)c1ccccc1 (racemic) [± Sensit base]
[1]
  SUMEB / DIMEB (ratio of solubilities): 1.53
[1]; 2.5% dimeb solution
  solubility at 18 h: 5500 µg/mL (≈ 17.4 mM)
[1]; 2.5% sumeb solution
  solubility at 18 h: 8500 µg/mL (≈ 26.9 mM)
[1]; water
  solubility at 18 h: 2100 µg/mL (≈ 6.66 mM)

## C[C@@H]([C@H](O)c1ccccc1)N(C)C [- N-Methylephedrine base, N-Methylephedrine]
[1]; [5]
  SUMEB / DIMEB (ratio of solubilities): 1.2
[1]; 2.5% dimeb solution
  solubility at 18 h: 18500 µg/mL (≈ 103 mM)
[1]; 2.5% sumeb solution
  solubility at 18 h: 22000 µg/mL (≈ 123 mM)

## CC(C)CCC[C@@H](C)[C@H]1CC[C@H]2[C@@H]3CC=C4C[C@@H](O)CC[C@]4(C)[C@H]3CC[C@]12C [Cholesterol]
[1]; [5]
  SUMEB / DIMEB (ratio of solubilities): 0.37
[1]; 2.5% dimeb solution
  solubility at 18 h: 1710 µg/mL (≈ 4.42 mM)
[1]; 2.5% sumeb solution
  solubility at 18 h: 640 µg/mL (≈ 1.66 mM)
[1]; water
  solubility at 18 h: 100 µg/mL (≈ 0.259 mM)

## COC[C@H]1O[C@@H]2O[C@H]3[C@H](O)[C@@H](OC)[C@@H](O[C@H]4[C@H](O)[C@@H](OC)[C@@H](O[C@H]5[C@H](O)[C@@H](OC)[C@@H](O[C@H]6[C@H](O)[C@@H](OC)[C@@H](O[C@H]7[C@H](O)[C@@H](OC)[C@@H](O[C@H]8[C@H](O)[C@@H](OC)[C@@H](O[C@H]1[C@H](O)[C@H]2OC)O[C@@H]8COC)O[C@@H]7COC)O[C@@H]6COC)O[C@@H]5COC)O[C@@H]4COC)O[C@@H]3COC [DIMEB, heptakis(2,6-di-O-methyl)-β-CD]
[2]
  HC50 at 0.5 h: 1 mM and 1440 µg/mL
  MNTC at 0.5 h: 220 µM and 300 µg/mL
[3]
  concentration giving the same percentage of haemolysis, relative to β-CD: one sixth

## c1ccc(Nc2ccccc2)cc1 [Diphenylamine]
[1]; [5]
  SUMEB / DIMEB (ratio of solubilities): 0.72
[1]; 2.5% dimeb solution
  solubility at 18 h: 520 µg/mL (≈ 3.07 mM)
[1]; 2.5% sumeb solution
  solubility at 18 h: 410 µg/mL (≈ 2.42 mM)

## COC[C@H]1O[C@@H]2O[C@H]3[C@H](OC)[C@@H](OC)[C@@H](O[C@H]4[C@H](OC)[C@@H](OC)[C@@H](O[C@H]5[C@H](OC)[C@@H](OC)[C@@H](O[C@H]6[C@H](OC)[C@@H](OC)[C@@H](O[C@H]7[C@H](OC)[C@@H](OC)[C@@H](O[C@H]8[C@H](OC)[C@@H](OC)[C@@H](O[C@H]1[C@H](OC)[C@H]2OC)O[C@@H]8COC)O[C@@H]7COC)O[C@@H]6COC)O[C@@H]5COC)O[C@@H]4COC)O[C@@H]3COC [TRIMEB, heptakis(2,3,6-tri-O-methyl)-β-CD]
[2]
  HC50 at 0.5 h: 4 mM and 5700 µg/mL
  MNTC at 0.5 h: 1.4 mM and 2000 µg/mL
[3]
  haemolytic effect, in words: also higher than that of the mother compound

## OC[C@H]1O[C@@H]2O[C@H]3[C@H](O)[C@@H](O)[C@@H](O[C@H]4[C@H](O)[C@@H](O)[C@@H](O[C@H]5[C@H](O)[C@@H](O)[C@@H](O[C@H]6[C@H](O)[C@@H](O)[C@@H](O[C@H]7[C@H](O)[C@@H](O)[C@@H](O[C@H]1[C@H](O)[C@H]2O)O[C@@H]7CO)O[C@@H]6CO)O[C@@H]5CO)O[C@@H]4CO)O[C@@H]3CO [α-CD]
[2]
  HC50 at 0.5 h: 12 mM and 11700 µg/mL
  MNTC at 0.5 h: 6 mM and 5800 µg/mL
[3]; [6]
  Haemolysis values, measured: 4.97%
[4]
  low concentration protecting human erythrocytes against heat-induced or osmotic haemolysis: 5 mmol
[4]; pH 7
  concentration at (and above) which haemolysis is induced: 6 mmol

## OC[C@H]1O[C@@H]2O[C@H]3[C@H](O)[C@@H](O)[C@@H](O[C@H]4[C@H](O)[C@@H](O)[C@@H](O[C@H]5[C@H](O)[C@@H](O)[C@@H](O[C@H]6[C@H](O)[C@@H](O)[C@@H](O[C@H]7[C@H](O)[C@@H](O)[C@@H](O[C@H]8[C@H](O)[C@@H](O)[C@@H](O[C@H]1[C@H](O)[C@H]2O)O[C@@H]8CO)O[C@@H]7CO)O[C@@H]6CO)O[C@@H]5CO)O[C@@H]4CO)O[C@@H]3CO [β-CD, β-cyclodextrin]
[2]
  HC50 at 0.5 h: 6 mM and 6800 µg/mL
  MNTC at 0.5 h: 1.6 mM and 1800 µg/mL
[4]; [7]
  concentration at (and above) which haemolysis is induced: 3 mmol

## OC[C@H]1O[C@@H]2O[C@H]3[C@H](O)[C@@H](O)[C@@H](O[C@H]4[C@H](O)[C@@H](O)[C@@H](O[C@H]5[C@H](O)[C@@H](O)[C@@H](O[C@H]6[C@H](O)[C@@H](O)[C@@H](O[C@H]7[C@H](O)[C@@H](O)[C@@H](O[C@H]8[C@H](O)[C@@H](O)[C@@H](O[C@H]9[C@H](O)[C@@H](O)[C@@H](O[C@H]1[C@H](O)[C@H]2O)O[C@@H]9CO)O[C@@H]8CO)O[C@@H]7CO)O[C@@H]6CO)O[C@@H]5CO)O[C@@H]4CO)O[C@@H]3CO [γ-CD]
[2]
  HC50 at 0.5 h: 24 mM and 32000 µg/mL
  MNTC at 0.5 h: ≤ 9 mM and ≤ 11000 µg/mL
[4]; [7]
  concentration at (and above) which haemolysis is induced: 16 mmol
[4]
  low concentration protecting human erythrocytes against heat-induced or osmotic haemolysis: 10 mmol

## trideca-O-methyl-monosuccinyl-β-cyclodextrin [SUMEB]
[3]
  haemolytic effect, in words: significantly lower in comparison to the haemolytic effect of the mother compound
[3]; [6]
  concentration at which no haemolytic effect was observed: 300 µg/mL
  concentration with a haemolysis value of 50%: 6500 µg/mL

## trideca-O-methyl-monosuccinyl-β-cyclodextrin methyl ester [Succinyl-DIMEB methyl ester]
[3]
  haemolytic effect, in words: not significantly different from the haemolytic effect of the trideca-O-methyl-monosuccinyl-β-CD
